# Patent US20260125374A1, “PI3K-ALPHA INHIBITORS AND METHODS OF MAKING AND USING THE SAME” (Relay Therapeutics, Inc., priority 2021, published 2026)
# Where two headings read alike, the source gives them in different places.
# What was measured:
# Assay type in all cases: physicochemical
# [1] = Salt screening (XRPD, chiral purity of hits); details: for Chiral purity of salt screening solid: slurry, 1.0 equiv. naphthalene-1,5-disulfonic acid
# Method: Based on the pKa of I-1 free form, 23 counter ions were selected as salt/cocrystal forming agents. Methanol, acetone and isopropyl acetate were used as screening solvents. 1.0 equivalent of selected counter ions/coformers was applied for salt screening. Slurry equilibration, slow evaporation and anti-solvent addition were used as crystallization methods. In total, about 70 screening experiments were conducted.
# About 50 mg of I-1 Form A were added to a suitable amount of solvent and 1.0 equivalent of counter ions were added under stirring at 50° C. for 2 hours and then at 25° C. for at least 12 hours. MeOH, acetone and IPAc were used as screening solvents.
# Obtained suspensions were taken out and centrifuged. Solids obtained were analyzed by XRPD and salt screening results were summarized in Table 5.1, Table 5.2, and Table 5.3.
# Hygroscopicity by DVS = details: for 1st Desorp. (%) / 1st Sorp. (%) / 2nd Desorp. (%) / 2nd Sorp. (%): DVS 25° C.
# Method: • Method 1 (for I-1 Form A and I-3 Form A) • Instrument Intrinsic, Advantage or Adventure • Total gas flow 200 sccm • Oven temperature 25° C. • Solvent Water • Method Cycle: 40-0-95-0-40% RH • Stage Step: 10% • Equilibrium: 0.002 dm/dt (%/min) • Minimum dm/dt stability duration: 60 min • Maximum dm/dt stage time: 360 min • Method 2 (for I-4 Form A) • Instrument Intrinsic, Advantage or Adventure • Total gas flow 200 sccm • Oven temperature 25° C. • Solvent Water • Method Cycle: 40-95-0-95-40% RH • Stage Step: 10% • Equilibrium: 0.002 dm/dt (%/min) • Minimum dm/dt stability duration: 60 min • Maximum dm/dt stage time: 360 min
# I-1 Form A is hygroscopic. It absorbs about 5.5% water by weight from 40% RH to 95% RH. […] It absorbs about 40% water by weight from 40% RH to 95% RH. Form changed after the DVS test. […] It starts to absorb water when RH>40% and potential hydrate form generates at high humidity based on DVS data. The sorption and desorption are reversible.
# Water sorption and desorption behavior of I-1 Form A, I-3 Form A, and I-4 Form A was investigated by DVS at 25° C. with a cycle of 40-0-95-0-40% RH, dm/dt 0.002, min. equilibration time 60 min and max. equilibration time 360 min. XRPD was measured after the DVS test to determine form change.
# [2] = Solubility study at 37° C. (buffer, water, bio-relevant media, MeOH/DCM)
# Method: In addition, residual solids were checked by chiral HPLC to confirm whether racemization occurs.
# Accurate 4 mg of I-1 Form A, 5.13 mg of I-3 Form A, 4.63 mg of I-4 Form A was weighed into a 8 mL glass vial, respectively. 2 mL of solubility medium was added. The salt amount used is equivalent to 4 mg anhydrous free form. Obtained suspensions/solutions were stirred at 37° C. at 400 rpm for 2 hours and 24 hours and then centrifuged at 37° C. at 14,000 rpm for 5 min. Supernatants were analyzed by UPLC and PH meter for solubility and pH value, respectively. Residual solids (wet cakes) were characterized by XRPD to determine physical form and then analyzed by HPLC for chiral purity.
# [3] = crystalline hits of salt screening, listed as I-1 Form A
# [4] = FaSSIF-V1, pH 6.5, 2 hours, listed as I-1 Form A
# [5] = FaSSIF-V1, pH 6.5, 24 hours, listed as I-1 Form A
# [6] = FeSSIF-V1, pH 5.0, 24 hours, listed as I-1 Form A
# [7] = SGF, pH 2.0, 24 hours, listed as I-1 Form A
# [8] = Water, 24 hours, listed as I-1 Form A
# [9] = pH 2, HCl, 24 hours, listed as I-1 Form A
smiles,measurement,setting,value
"N#Cc1c(-c2cc(NC(=O)c3cc(F)cc(C(F)(F)F)c3)c3c(c2)C(=O)N[C@H]3c2cc(F)ccc2Cl)ccc2ncnn12 [Compound I-1, (R)-N-(3-(2-chloro-5-fluorophenyl)-6-(5-cyano-[1,2,4]triazolo[1,5-a]pyridin-6-yl)-1-oxoisoindolin-4-yl)-3-fluoro-5-(trifluoromethyl)benzamide]",Salt screening result (slurry crystallization),"[1]; 1.0 equiv. theobromine, MeOH","− (physical mixtures (Free form, counter ions, or physical mixtures)"
same,Salt screening result (slurry crystallization),"[1]; 1.0 equiv. theophylline, Acetone","− (physical mixtures (Free form, counter ions, or physical mixtures)"
same,Salt screening result (slurry crystallization),"[1]; 1.0 equiv. theophylline, Isopropyl acetate","− (physical mixtures (Free form, counter ions, or physical mixtures)"
same,Salt screening result (slurry crystallization),"[1]; 1.0 equiv. theophylline, MeOH","− (physical mixtures (Free form, counter ions, or physical mixtures)"
same,Salt screening result (slurry crystallization),"[1]; Free form, Acetone","− (I-1 Form A) (Free form, counter ions, or physical mixtures)"
same,Salt screening result (slurry crystallization),"[1]; Free form, Isopropyl acetate","− (I-1 Form A) (Free form, counter ions, or physical mixtures)"
same,Salt screening result (slurry crystallization),"[1]; Free form, MeOH","− (I-1 Form A) (Free form, counter ions, or physical mixtures)"
same,Chiral purity (by HPLC),[1]; [3],99.2%
same,Crystallinity (By XRPD),[1]; [3],High
same,Chiral purity of salt screening solid,[1]; MeOH,Chiral purity: 100%
same,Chiral purity of salt screening solid,"[1]; MeOH/water(9:1, v/v)",Chiral purity: 99.3%
same,Chiral purity of salt screening solid,"[1]; MeOH, dried at 50° C. for 21 h",Chiral purity: 100%
same,1st Desorp. (%),"Hygroscopicity by DVS; 0% RH, listed as I-1 Form A",0.17%
same,1st Sorp. (%),"Hygroscopicity by DVS; 0% RH, listed as I-1 Form A",0.17%
same,2nd Desorp. (%),"Hygroscopicity by DVS; 0% RH, listed as I-1 Form A",0.001%
same,2nd Sorp. (%),"Hygroscopicity by DVS; 0% RH, listed as I-1 Form A",0.001%
same,2nd Desorp. (%),Hygroscopicity by DVS; 10% RH,0.11%
same,1st Desorp. (%),"Hygroscopicity by DVS; 10% RH, listed as I-1 Form A",0.25%
same,1st Sorp. (%),"Hygroscopicity by DVS; 10% RH, listed as I-1 Form A",0.23%
same,2nd Sorp. (%),"Hygroscopicity by DVS; 10% RH, listed as I-1 Form A",0.08%
same,1st Desorp. (%),"Hygroscopicity by DVS; 20% RH, listed as I-1 Form A",0.33%
same,1st Sorp. (%),"Hygroscopicity by DVS; 20% RH, listed as I-1 Form A",0.29%
same,2nd Desorp. (%),"Hygroscopicity by DVS; 20% RH, listed as I-1 Form A",0.21%
same,2nd Sorp. (%),"Hygroscopicity by DVS; 20% RH, listed as I-1 Form A",0.15%
same,1st Desorp. (%),"Hygroscopicity by DVS; 30% RH, listed as I-1 Form A",0.42%
same,1st Sorp. (%),"Hygroscopicity by DVS; 30% RH, listed as I-1 Form A",0.35%
same,2nd Desorp. (%),"Hygroscopicity by DVS; 30% RH, listed as I-1 Form A",0.33%
same,2nd Sorp. (%),"Hygroscopicity by DVS; 30% RH, listed as I-1 Form A",0.22%
same,1st Desorp. (%),"Hygroscopicity by DVS; 40% RH, listed as I-1 Form A",0.52%
same,1st Sorp. (%),"Hygroscopicity by DVS; 40% RH, listed as I-1 Form A",0.42%
same,2nd Desorp. (%),"Hygroscopicity by DVS; 40% RH, listed as I-1 Form A",0.51%
same,2nd Sorp. (%),"Hygroscopicity by DVS; 40% RH, listed as I-1 Form A",0.32%
same,1st Sorp. (%),"Hygroscopicity by DVS; 50% RH, listed as I-1 Form A",0.54%
same,2nd Desorp. (%),"Hygroscopicity by DVS; 50% RH, listed as I-1 Form A",0.92%
same,1st Sorp. (%),"Hygroscopicity by DVS; 60% RH, listed as I-1 Form A",0.71%
same,2nd Desorp. (%),"Hygroscopicity by DVS; 60% RH, listed as I-1 Form A",1.30%
same,1st Sorp. (%),"Hygroscopicity by DVS; 70% RH, listed as I-1 Form A",1.02%
same,2nd Desorp. (%),"Hygroscopicity by DVS; 70% RH, listed as I-1 Form A",1.62%
same,1st Sorp. (%),"Hygroscopicity by DVS; 80% RH, listed as I-1 Form A",1.84%
same,2nd Desorp. (%),"Hygroscopicity by DVS; 80% RH, listed as I-1 Form A",2.15%
same,1st Sorp. (%),"Hygroscopicity by DVS; 90% RH, listed as I-1 Form A",3.24%
same,2nd Desorp. (%),"Hygroscopicity by DVS; 90% RH, listed as I-1 Form A",3.56%
same,1st Sorp. (%),"Hygroscopicity by DVS; 95% RH, listed as I-1 Form A",5.90%
same,2nd Desorp. (%),"Hygroscopicity by DVS; 95% RH, listed as I-1 Form A",5.90%
same,hygroscopicity,"Hygroscopicity by DVS; DVS at 25° C., listed as I-1 Form A",hygroscopic
same,water absorbed,"Hygroscopicity by DVS; from 40% RH to 95% RH, 25° C., listed as I-1 Form A",about 5.5 % water by weight
same,form after the DVS test (XRPD),Hygroscopicity by DVS; listed as I-1 Form A,no form and crystallinity change
same,Chiral purity,[2]; [4],purity: 97.7%)
same,Solubility,[2]; [4],4.5 μg/mL(chiral
same,Chiral purity,"[2]; FaSSIF-V1, pH 6.5, 24 hours",(chiral purity: 97.7%)
same,Chiral purity (solids),[2]; [5],98.9%)
same,Solubility,[2]; [5],11.9 µg/mL
same,pH of supernatant,[2]; [5],6.45
same,Solubility,"[2]; FeSSIF-V1, pH 5.0, 2 hours, listed as I-1 Form A",20.5 µg/mL
same,Chiral purity (solids),[2]; [6],85.7%)
same,Solubility,[2]; [6],40.6 µg/mL
same,pH of supernatant,[2]; [6],4.87
same,solubility at 2 h,"[2]; MeOH/DCM (1:2, v/v), 37 °C, organic solvent or mixture, thermodynamic from solid, MeOH/DCM (1:2, v/v), 2 hours",> 145000 µg/mL
same,solubility at 24 h,"[2]; MeOH/DCM (1:2, v/v), 37 °C, organic solvent or mixture, thermodynamic from solid, MeOH/DCM (1:2, v/v), 24 hours",> 145000 µg/mL
same,Solubility,"[2]; MeOH/DCM (1:2, v/v), 37 °C, organic solvent or mixture, thermodynamic from solid, read-out: solubility in MeOH/DCM (1:2, v/v)",> 145000 µg/mL
same,Solubility,"[2]; SGF, pH 2.0, 2 hours, listed as I-1 Form A",11.2 µg/mL
same,Chiral purity (solids),[2]; [7],98.9%)
same,Solubility,[2]; [7],6.4 µg/mL
same,pH of supernatant,[2]; [7],2.04
same,Solubility,"[2]; Water, 2 hours, LOQ: 0.5 μg/mL",<LOQ
same,Solubility,"[2]; Water, 24 hours, LOQ: 0.5 μg/mL",LOQ
same,Chiral purity (solids),[2]; [8],98.9%)
same,pH of supernatant,[2]; [8],7.50
same,Solubility,"[2]; pH 2, HCl, 2 hours, LOQ: 0.5 μg/mL",<LOQ
same,Solubility,"[2]; pH 2, HCl, 24 hours, LOQ: 0.5 μg/mL",LOQ
same,Chiral purity (solids),[2]; [9],98.9%)
same,pH of supernatant,[2]; [9],2.03
same,Solubility,"[2]; pH 2.0 HCl buffer solution, 37 °C, pH 2, aqueous buffer, thermodynamic from solid, solubility in pH 2 HCl buffer solution, 2 h and 24 h, LOQ=0.5 μg/mL",< 0.5 µg/mL
same,Solubility,"[2]; water, 37 °C, water, thermodynamic from solid, 2 h and 24 h, LOQ=0.5 μg/mL, read-out: solubility in pure water",< 0.5 µg/mL
